Earlier results as cited in US11517624B2, “Pharmaceutical composition for the parenteral administration of ultrashort-effective β-adrenoreceptor antagonists” (AOP ORPHAN PHARMACEUTICALS AG, priority 2007, dated 2022).

elimination half-life t1/2: 1.5 h
SMILES: COCCc1ccc(OCC(O)CNC(C)C)cc1 (stereo not shown) [metoprolol]
